Measurements reported in US11872217B2, “Indanes as PD-L1 inhibitors” (CHEMOCENTRYX, INC., priority 2019, dated 2024).

Target: human PD-L1 / Human PD-1 (Homo sapiens (Human), UniProt Q9NZQ7)
Assay: Enzyme-Linked Immunosorbent Assay (ELISA), PD-1/PD-L1 binding
Conditions: plates coated with human PD-L1; biotinylated human PD-1; absorbance at 450 nm
Description: 96 Well plates were coated with 1 μg/mL of human PD-L1 (obtained from R&D) in PBS overnight at 4° C. The wells were then blocked with 2% BSA in PBS (W/V) with 0.05% TWEEN-20 for 1 hour at 37° C. The plates were washed 3 times with PBS/0.05% TWEEN-20 and the compounds were serial diluted (1:5) in dilution medium and added to the ELISA plates. Human PD-1 and biotin 0.3 μg/mL (ACRO Biosystems) were added and incubated for 1 hour at 37° C. then washed 3 times with PBS/0.05% TWEEN-20. A second block was performed with 2% BSA in PBS (W/V)/0.05% TWEEN-20 for 10 min at 37° C. and the plates were washed 3 times with PBS/0.05% TWEEN-20. Streptavidin-HRP was added for 1 hour at 37° C. then the plates were washed 3 times with PBS/0.05% TWEEN-20. TMB substrate was added and reacted for 20 min at 37° C. A stop solution (2 N aqueous H2SO4) was added. The absorbance was read at 450 nm using a micro-plate spectrophotometer. The results are shown in Table 1: IC50 values are provided as follows: from 100 up to 10,000 nM (+); less than 100 nM (++).

Chain of human PD-L1 / Human PD-1 (Q9NZQ7 19-239): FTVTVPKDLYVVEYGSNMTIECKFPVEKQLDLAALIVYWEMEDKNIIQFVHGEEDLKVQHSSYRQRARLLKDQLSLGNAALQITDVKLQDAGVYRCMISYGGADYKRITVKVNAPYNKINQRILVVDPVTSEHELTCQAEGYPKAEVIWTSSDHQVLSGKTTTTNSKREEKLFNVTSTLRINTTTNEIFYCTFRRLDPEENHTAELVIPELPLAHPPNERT

Row | IC50 [nM] | SMILES
1 | < 100 | CCOc1cc(O[C@H]2CCc3c(-c4cccc5c4CC[C@@H]5Oc4cc(OCC)c(CN[C@@](C)(CO)C(=O)O)cc4Cl)cccc32)c(Cl)cc1CN[C@@H]1CCC[C@@H]1O [Compound 1.013]
2 | < 100 | Cc1cc(CN[C@@](C)(CO)C(=O)O)ccc1OCc1cccc(-c2cccc3c2CCC3Oc2ccc(CN[C@@](C)(CO)C(=O)O)cc2C)c1C (stereo partly shown) [Compound 1.008]
3 | < 100 | N#Cc1cncc(COc2cc(O[C@H]3CCc4c(-c5cccc6c5CC[C@@H]6Oc5cc(OCc6cncc(C#N)c6)c(CN[C@@H](CCO)C(=O)O)cc5Cl)cccc43)c(Cl)cc2CN[C@@H](CCO)C(=O)O)c1 [Compound 1.046]
4 | 100 to 10000 | CC(C)OC(=O)[C@](C)(CO)NCc1cc(Cl)c(O[C@H]2CCc3c(-c4cccc5c4CC[C@@H]5Oc4cc(OCc5cncc(C#N)c5)c(CN[C@@](C)(CO)C(=O)OC(C)C)cc4Cl)cccc32)cc1OCc1cncc(C#N)c1 [Compound 1.041]
5 | < 100 | CCOc1cc(O[C@H]2CCc3c(-c4cccc5c4CC[C@@H]5Oc4cc(OCC)c(CN5CCC6(C5)NC(=O)NC6=O)cc4Cl)cccc32)c(Cl)cc1CN[C@@](C)(CO)C(=O)O (stereo partly shown) [Compound 1.028]
6 | < 100 | C[C@@](CO)(NCc1cc(Cl)c(O[C@H]2CCc3c(-c4cccc5c4CC[C@@H]5Oc4cc(OCc5cncc(C#N)c5)c(CN[C@@](C)(CO)C(=O)O)cc4Cl)cccc32)cc1OCc1cncc(C#N)c1)C(=O)O [Compound 1.051]
7 | 100 to 10000 | CCOc1cc(NC2CCc3c(-c4cccc(COc5cc(OCC)c(CN(C)CCCC(=O)OC)cc5Cl)c4C)cccc32)c(Cl)cc1CN(C)CCCC(=O)OC (stereo not shown) [Compound 1.016]
